From patent US20140357655A1, “SPIROINDOLINE DERIVATIVES AS GONADOTROPIN- RELEASING HORMONE RECEPTOR ANTAGONISTS” (Bayer Intellectual Property GmbH, priority 2012, published 2014)

Target: T1, human GnRH receptor (Homo sapiens, UniProt P30968)
T1 sequence (P30968 1-328): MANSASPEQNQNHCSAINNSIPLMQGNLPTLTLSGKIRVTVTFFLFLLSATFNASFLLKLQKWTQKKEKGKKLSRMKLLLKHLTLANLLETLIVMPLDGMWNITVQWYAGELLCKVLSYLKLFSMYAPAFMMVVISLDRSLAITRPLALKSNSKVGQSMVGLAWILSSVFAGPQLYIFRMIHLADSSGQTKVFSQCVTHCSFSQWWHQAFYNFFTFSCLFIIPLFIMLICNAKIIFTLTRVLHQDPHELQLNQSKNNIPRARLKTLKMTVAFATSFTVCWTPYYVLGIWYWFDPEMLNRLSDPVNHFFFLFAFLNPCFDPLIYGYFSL
Experiment: IP-One HTRF assay with buserelin (at EC80) stimulation
Format: cell-based
Conditions: CHO cells stably expressing human GnRH receptor, read-out: Potency in IP-One HTRF assay, given as IC50
Text: 2.3. IP-One HTRF® Assay By using homogenous time-resolved fluorescence resonance energy transfer (HTRF), the generation of one component of the GnRH—R signalling cascade can be measured. After stimulation of CHO cells stably expressing human GnRH receptor (established by Prof. Thomas Gudermann, currently University of Marburg, Germany; supplied as frozen cell aliquots by Cell Culture Services, Hamburg, Germany) with the EC80 of the GnRH agonist buserelin, Gq protein-coupled receptor signalling cascade is activated resulting in PLC-dependent cleavage of PIP2 to Inositol-1,4,5-triphosphate (IP3) and Diacylglycerol. The second messenger IP3 is degraded intracellularly to myo-inositol. Inhibition of the final degradation step from Inositol-1-phosphate (IP1) to myo-inositol by addition of lithium chloride leads to accumulation of IP1 in the cells. In cell lysates, IP1 can be detected via an antibody-based HTRF detection technology, where IP1 can displace the FRET acceptor IP1-d2 from binding by Terbium-labelled anti-IP1 antibody as donor resulting in a signal decrease. Compounds were tested for their capability of inhibiting GnRH—R activation by buserelin. For all IP-One HTRF® assays reagents of Cisbio Bioassays (IP-One Tb Jumbo kit, #62IPAPEJ; Cisbio Bioassays, Bagnols sur Cèze Cedex, France) were used.
For the assay, frozen cell aliquots were thawed and a cell suspension (3.33×10^6 cells/mL) containing IP1-d2 (dilution 1:40) was prepared and incubated at 37° C. After 1 h 3 μl of the cell suspension were added to 50 nl of a 100-fold concentrated solution of the test compound in DMSO pre-dispensed in a well of a white low-volume 384-well microtiter plate (Greiner Bio-One, Frickenhausen, Germany). […] Plates were incubated for 1 h at 37° C. and 5% carbon dioxide before the cells were lysed by adding 3 μl Terbium-labelled anti-IP1 antibody (1:40) diluted in Conjugate & Lysis buffer as supplied with the kit. After an incubation for 1 h at 22° C. to enable complete cell lysis and antibody binding to free IP1 or IP1-d2, plates were measured in an HTRF reader, e.g. a RUBYstar, PHERAstar (both BMG Labtechnologies, Offenburg, Germany) or a Viewlux (PerkinElmer LAS, Rodgau-Jügesheim, Germany).
From the fluorescence emissions at 665 nm (FRET) and at 620 nm (background signal of Terbium-antibody), the ratio (emission at 665 nm divided by emission at 620 nm) was calculated and the data were normalized (reaction without test compound=0% inhibition; all other assay components except agonist=100% inhibition). On the same microtiter plate, compounds were tested at 10 different concentrations in the range of 20 μM to 1 nM (20 μM, 6.7 μM, 2.2 μM, 0.74 μM, 0.25 μM, 82 nM, 27 nM, 9.2 nM, 3.1 nM and 1 nM; dilution series prepared before the assay at the level of the 100-fold conc. stock solutions by serial 1:3 dilutions in 100% DMSO) in duplicate values for each concentration. By using an in-house software, the IC50 values were calculated by a 4 parameter fit.

Row | Structure (SMILES) | IC50 [nM]
1 | O=C(NCc1ccccc1C(F)(F)F)c1ccc2c(c1)C1(CCS(=O)(=O)CC1)C(C1CC1)N2S(=O)(=O)c1ccc(F)cc1 (single isomer, unassigned) [Example 32.2, 2-cyclopropyl-1-[(4-fluorophenyl)sulfonyl]-N-[2-(trifluoromethyl)benzyl]-1,2,2′,3′,5′,6′-hexahydrospiro[indole-3,4′-thiopyran]-5-carboxamide 1′,1′-dioxide] | 1260
2 | O=C(NC1CCOc2ccccc21)c1ccc2c(c1)C1(CCS(=O)(=O)CC1)C(C1CC1)N2S(=O)(=O)c1ccc(F)cc1 (single isomer, unassigned) [Example 33.1, 2-cyclopropyl-N-(3,4-dihydro-2H-chromen-4-yl)-1-[(4-fluorophenyl)sulfonyl]-1,2,2′,3′,5′,6′-hexahydrospiro[indole-3,4′-thiopyran]-5-carboxamide 1′,1′-dioxide] | 425
3 | O=C(NC1CCOc2ccccc21)c1ccc2c(c1)C1(CCS(=O)(=O)CC1)C(C1CC1)N2S(=O)(=O)c1ccc(F)cc1 (single isomer, unassigned) [Example 33.2, 2-cyclopropyl-N-(3,4-dihydro-2H-chromen-4-yl)-1-[(4-fluorophenyl)sulfonyl]-1,2,2′,3′,5′,6′-hexahydrospiro[indole-3,4′-thiopyran]-5-carboxamide 1′,1′-dioxide] | > 20000
4 | O=C(NC1CCOc2ccccc21)c1ccc2c(c1)C1(CCS(=O)(=O)CC1)C(C1CC1)N2S(=O)(=O)c1ccc(F)cc1 (single isomer, unassigned) [Example 33.3, 2-cyclopropyl-N-(3,4-dihydro-2H-chromen-4-yl)-1-[(4-fluorophenyl)sulfonyl]-1,2,2′,3′,5′,6′-hexahydrospiro[indole-3,4′-thiopyran]-5-carboxamide 1′,1′-dioxide] | > 20000
5 | COC(=O)c1cccc(NC(=O)c2ccc3c(c2)C2(CCS(=O)(=O)CC2)C(C2CC2)N3S(=O)(=O)c2ccc(F)cc2)c1 (single isomer, unassigned) [Example 34.1, methyl 3-[({2-cyclopropyl-1-[(4-fluorophenyl)sulfonyl]-1′,1′-dioxido-1,2,2′,3′,5′,6′-hexahydrospiro[indole-3,4′-thiopyran]-5-yl}carbonyl)amino]benzoate] | 38
6 | COC(=O)c1cccc(NC(=O)c2ccc3c(c2)C2(CCS(=O)(=O)CC2)C(C2CC2)N3S(=O)(=O)c2ccc(F)cc2)c1 (single isomer, unassigned) [Example 34.2, methyl 3-[({2-cyclopropyl-1-[(4-fluorophenyl)sulfonyl]-1′,1′-dioxido-1,2,2′,3′,5′,6′-hexahydrospiro[indole-3,4′-thiopyran]-5-yl}carbonyl)amino]benzoate] | 825
7 | O=C(NCC1CC1)c1ccc2c(c1)C1(CCS(=O)(=O)CC1)C(C1CC1)N2S(=O)(=O)c1ccc(F)cc1 (single isomer, unassigned) [Example 35.1, 2-cyclopropyl-N-(cyclopropylmethyl)-1-[(4-fluorophenyl)sulfonyl]-1,2,2′,3′,5′,6′-hexahydrospiro[indole-3,4′-thiopyran]-5-carboxamide 1′,1′-dioxide] | 394
8 | O=C(NCC1CC1)c1ccc2c(c1)C1(CCS(=O)(=O)CC1)C(C1CC1)N2S(=O)(=O)c1ccc(F)cc1 (single isomer, unassigned) [Example 35.2, 2-cyclopropyl-N-(cyclopropylmethyl)-1-[(4-fluorophenyl)sulfonyl]-1,2,2′,3′,5′,6′-hexahydrospiro[indole-3,4′-thiopyran]-5-carboxamide 1′,1′-dioxide] | > 20000
9 | O=C(NCC1CCCCC1)c1ccc2c(c1)C1(CCS(=O)(=O)CC1)C(C1CC1)N2S(=O)(=O)c1ccc(F)cc1 (single isomer, unassigned) [Example 36.1, N-(cyclohexylmethyl)-2-cyclopropyl-1-[(4-fluorophenyl)sulfonyl]-1,2,2′,3′,5′,6′-hexahydrospiro[indole-3,4′-thiopyran]-5-carboxamide 1′,1′-dioxide] | 107
10 | O=C(NCC1CCCCC1)c1ccc2c(c1)C1(CCS(=O)(=O)CC1)C(C1CC1)N2S(=O)(=O)c1ccc(F)cc1 (single isomer, unassigned) [Example 36.2, N-(cyclohexylmethyl)-2-cyclopropyl-1-[(4-fluorophenyl)sulfonyl]-1,2,2′,3′,5′,6′-hexahydrospiro[indole-3,4′-thiopyran]-5-carboxamide 1′,1′-dioxide] | 3890
11 | CN(C)S(=O)(=O)c1cccc(NC(=O)c2ccc3c(c2)C2(CCS(=O)(=O)CC2)C(C2CC2)N3S(=O)(=O)c2ccc(F)cc2)c1 (single isomer, unassigned) [Example 37.1, 2-cyclopropyl-N-[3-(N,N-dimethylsulfamoyl)phenyl]-1-[(4-fluorophenyl)sulfonyl]-1,2,2′,3′,5′,6′-hexahydrospiro[indole-3,4′-thiopyran]-5-carboxamide 1′,1′-dioxide] | 2130
12 | CN(C)S(=O)(=O)c1cccc(NC(=O)c2ccc3c(c2)C2(CCS(=O)(=O)CC2)C(C2CC2)N3S(=O)(=O)c2ccc(F)cc2)c1 (single isomer, unassigned) [Example 37.2, 2-cyclopropyl-N-[3-(N,N-dimethylsulfamoyl)phenyl]-1-[(4-fluorophenyl)sulfonyl]-1,2,2′,3′,5′,6′-hexahydrospiro[indole-3,4′-thiopyran]-5-carboxamide 1′,1′-dioxide] | 44
13 | O=C(NCC1CCCC1)c1ccc2c(c1)C1(CCS(=O)(=O)CC1)C(C1CC1)N2S(=O)(=O)c1ccc(F)cc1 (single isomer, unassigned) [Example 38.1, N-(cyclopentylmethyl)-2-cyclopropyl-1-[(4-fluorophenyl)sulfonyl]-1,2,2′,3′,5′,6′-hexahydrospiro[indole-3,4′-thiopyran]-5-carboxamide 1′,1′-dioxide] | 88
14 | O=C(NCC1CCCC1)c1ccc2c(c1)C1(CCS(=O)(=O)CC1)C(C1CC1)N2S(=O)(=O)c1ccc(F)cc1 (single isomer, unassigned) [Example 38.2, N-(cyclopentylmethyl)-2-cyclopropyl-1-[(4-fluorophenyl)sulfonyl]-1,2,2′,3′,5′,6′-hexahydrospiro[indole-3,4′-thiopyran]-5-carboxamide 1′,1′-dioxide] | 6860
15 | COc1cccc(S(=O)(=O)N2c3ccc(C(=O)NCc4ncccc4C(F)(F)F)cc3C3(CCS(=O)(=O)CC3)C2C2CC2)c1 (single isomer, unassigned) [Example 39.1, 2-cyclopropyl-1-[(3-methoxyphenyl)sulfonyl]-N-{[3-(trifluoromethyl)pyridin-2-yl]methyl}-1,2,2′,3′,5′,6′-hexahydrospiro[indole-3,4′-thiopyran]-5-carboxamide 1′,1′-dioxide] | 40
16 | COc1cccc(S(=O)(=O)N2c3ccc(C(=O)NCc4ncccc4C(F)(F)F)cc3C3(CCS(=O)(=O)CC3)C2C2CC2)c1 (single isomer, unassigned) [Example 39.2, 2-cyclopropyl-1-[(3-methoxyphenyl)sulfonyl]-N-{[3-(trifluoromethyl)pyridin-2-yl]methyl}-1,2,2′,3′,5′,6′-hexahydrospiro[indole-3,4′-thiopyran]-5-carboxamide 1′,1′-dioxide] | 565
